Laboratory results as given in patent US20240182521A1, “CELL-PENETRATING PEPTIDE VARIANT AND USE THEREOF” (REGEN INNOPHARM INC., priority 2021, published 2024).

How the values were obtained:
[1] = tested on: diabetes model mice (db/db); assay: Diabetic wound healing of LPX105 variants in db/db mice; format: in vivo, mouse; details: 3 μg daily for 10 days, control group PBS
Method: By using the method described in Example 2-4 above, the diabetic wound healing effect of LPX105, LPH105, and LPHS105 was evaluated. Specifically, the skins of diabetes model mice (db/db) (n=14 each) were punched with an 8 mm diameter puncher and treated with LPX105, LPH105 and LPHS105 (3 μg) or PBS daily for 10 days and subjected to wound dressing. The wound healing effect was confirmed by analyzing an initial wound area and a re-epithelialization area using ImageJ (mean SEM n=3, *; p<0.05).

[2] = tested on: fibroblast 3T3 cells; assay: Cell migration across a scratched boundary, LPX105 variants; format: cell-based; details: 72 hours after treatment, control group PBS
Method: Using the method described in Example 1-2 above, the cell migration promotion of LPX105, LPH105, and LPHS105 was confirmed. Specifically, in order to confirm the cell migration effect, fibroblast 3T3 cells were treated with LPX105, LPH105, and LPHS105 peptides, incubated for 1 hour, and then washed. Thereafter, the migration of cells across a scratched boundary was measured 72 hours after treatment. The number of cells that migrated across a scratch line was measured by image analysis using ImageJ.

[3] = tested on: NIH3T3 cells; assay: Cell migration effects, Table 1; format: cell-based, mouse; details: vehicle = 1
Method: Various variants of the LPX peptides were prepared as illustrated in FIG. 18. Specifically, various constructs (26 constructs including 101) were prepared by adding various mutations (substitution of a CPP region, amino acid mutation of an RNA binding portion and a zinc finger structure, and addition of his-tag) to the structure of LPX101 in FIG. 19 (FIG. 20).

## LPH105: LPX105 variant of SEQ ID NO: 39, Histidine tag insertion (HHHHHHRRPKGKSMQKRRSKGDRCYNCGGLDHHAKECKL; LPH105)
[1]
  diabetic wound healing: accelerated the diabetic wound healing more significantly than LPX105
[2]
  cell migration: increased cell migration more than LPX105

## LPHS105: LPX105 variant of SEQ ID NO: 40, zinc finger region mutations and Histidine tag insertion (HHHHHHRRPKGKSMQKRRSKGDRCYNCGELDHHAKECKL; LPHS105)
[1]
  diabetic wound healing: accelerated the diabetic wound healing more significantly than LPX105
[2]
  cell migration: increased cell migration more than LPX105

## LPX104: cell-penetrating peptide of SEQ ID NO: 14, containing SEQ ID NO: 7 with an RNA binding site in zinc finger 2 region (ERRPKGKSMQKRRSKGDRCYNCGGLDHHAKECKLPPQPKKCH; LPX104)
[3]; 1 uM
  Effects on cell migration (3 expts): 1.3
[3]; 5 uM
  Effects on cell migration (3 expts): 1.3

## LPX105: cell-penetrating peptide of SEQ ID NO: 37 (RRPKGKSMQKRRSKGDRCYNCGGLDHHAKECKL; LPX105)
[1]
  diabetic wound healing: accelerated the diabetic wound healing
[2]
  cell migration: significantly promoted cell migration
